The values that follow come from paper PMC8665362, “Identification of small-molecule allosteric modulators that act as enhancers/disrupters of rhodopsin oligomerization” (The Journal of Biological Chemistry, 2021).

Marks after values point to notes of the source that are not given here.

Series [1] relates to rod photoreceptors of isolated mouse retinas. The series is described as follows: ex vivo ERG of isolated mouse retinas (rod light responses). Type of series: cell-based, mouse (C57BL/6J). The following applies: 250 μM compound. The source says:
We determined the impact of compound #7 (representative disrupter of rhodopsin dimerization) and compound #1 (representative enhancer) on the sensitivity and kinetics of rod light responses, using ex vivo electroretinogram (ERG) analysis of isolated mouse retinas (Experimental procedures). This technique allows robust recordings from intact retinas and is well suited for quantitative investigation of mouse phototransduction ([48], [49], [50], [51], [52], [53]).
Ex vivo ERG recordings were conducted with isolated retinas of C57Bl/6J mice, as described ([41], [62], [63]). Mice were dark-adapted overnight and euthanized by CO2 asphyxiation, and whole retinas were dissected under dim red light. Before recordings, retinas were incubated for 5 h in Ames’ medium (Sigma-Aldrich) inside a light-tight box that was supplied with humidified 95% O2/5% CO2. For control retinas, 0.1% DMSO was added to the incubation medium, and for others, the incubation medium contained either 250 μM F2502-0030 (compound #1) or F5897-0190 (compound #7). These compounds were first dissolved in DMSO at 250 mM concentration, and 0.1% of this stock solution was added to the incubation medium (Ames’ medium). Stock solution was stored at −20 °C and used within a week. After incubation, retinas were placed on the ex vivo ERG specimen holder and perfused with Ames’ medium (saturated with 95% O2/5% CO2) at 1.5 ml/min at 35 °C. Ames’ medium was supplemented with 100 μM BaCl2 and 40 μM DL-AP4 (Tocris Bioscience) to isolate the photoreceptor component of the ERG signal. Responses were recorded to 5 ms flashes of light (630 nm) ranging from 276 to 308,534 photons μm^−2, corresponding to 1 to 1100 photons μm^−2 at 500 nm ([64]). Sensitivity of rod photoreceptors was determined in three ways: (1) sF = peak amplitude of dim flash response divided by flash energy (1 photon μm^−2); (2) SF = sF/Rmax, where Rmax is the maximal response amplitude measured at the plateau from a saturated rod response; (3) I1/2: flash energy required to elicit 50% of the Rmax determined by fitting a Naka-Rushton function to flash energy-amplitude data.

Series [2] concerns the target rhodopsin (isorhodopsin) dimerization (Homo sapiens, UniProt P08100). The series is described as follows: rhodopsin β-gal fragment complementation assay in U2OS opsin-EA/opsin-PK cells. Type of series: cell-based. Further details: expressed in transfected cells. To be noted: U2OS opsin-EA/PK cells regenerated with 9-cis-retinal; triplicates; read from Fig. 3A,D. An excerpt: To identify small molecules that target rhodopsin dimerization, a cell-based high-throughput screening (HTS) assay was used to screen a diverse library of 50,000 compounds from Life Chemicals. The human osteosarcoma (U2OS) stable cell line was used, which expresses opsin fused with complimentary subunits of β-galactosidase (β-gal), namely, the enzyme acceptor large β-gal subunit (EA) and the enzyme donor, small subunit of β-gal (PK). Upon rhodopsin self-association in vitro, a competent β-gal was formed and chemiluminescent signal was generated in the presence of β-gal substrate (Fig. 1A). For further validation, the β-gal activity assay was used to counter-screen and rule out false positives, affecting the activity of β-gal without affecting rhodopsin (Fig. 1B) ([34]). In an orthogonal assay, rhodopsin dimerization was assessed using a bioluminescence resonance energy transfer (BRET) assay with human embryonic kidney 293 cells expressing opsin fused with Renilla luciferase and opsin fused with Venus (Fig. 1C) ([35], [36]). To form functional visual pigment, opsin-fused proteins were regenerated with 9-cis-retinal to form so-called isorhodopsin ([37]). We chose 9-cis-retinal over photoreceptor-endogenous 11-cis-retinal because of its availability and the prohibitive cost for HTS assays with the native chromophore. Rhodopsin and isorhodopsin have similar biochemical and spectral properties (see ([38])).
All 50,000 compounds were screened, using the β-gal complementation assay at a final concentration of 60 μM with a Z′ factor of 0.75 ± 0.01 and a signal-to-background (S/B) ratio of 123 ± 14.4 (Fig. 2A) ([39]). The activity scores were calculated according to the following equation: (RLU(compound)−RLU(positivecontrol))/(RLU(negativecontrol)−RLU(positivecontrol))×100.
The positive control comprised U2OS cells transfected with both opsin-EA and opsin-PK, mimicking dimer formation (with a 0% score value), and the negative control comprised U2OS cells transfected with opsin-EA only, mimicking disrupted dimer formation (with a 100% score value).
In this study, cultured U2OS opsin-EA and opsin-PK cells were diluted to 2 × 10^5 cells/ml in the culture medium containing 10% fetal bovine serum (Thermo Fisher Scientific) and 1% penicillin-streptomycin 10,000 U/ml (Thermo Fisher Scientific). Cell diluent of 20 μl/well was dispensed into a white ViewPlate-384 (PerkinElmer) using the EL406 plate dispenser (BioTek). As a control, we used U2OS opsin-EA–only expressing cells as a positive control for dimerization disruption generating a minimal luminescence signal, as previously described ([41]). The plates were cultured overnight at 37 °C in 5% CO2, and the next day, under a dim red light, cells were treated with 5 μl/well of 9-cis-retinal (Sigma-Aldrich) at 7.5 μM final concentration. Plates were covered with aluminum foil and cultured overnight at 37 °C in 5% CO2. Next, cells were treated with each of the 50,000 library compounds (Life Chemicals Inc) at a final concentration of 57.6 μM, using a JANUS automated workstation (PerkinElmer), followed by incubation overnight at 37 °C, covered with aluminum foil. The next day, cells were treated with Galacton-Star chemiluminescent substrate (23 μl/well; Thermo Fisher Scientific). The plates were covered with foil and incubated at 20 °C for 2 h, followed by luminescence reading with the EnSpire multimode plate reader (PerkinElmer). Measurements were evaluated with the lowest value being defined as −50% (dimer enhancers) and the highest value as 100% (dimer disrupters) in the compound dataset. All experiments were done under red-light conditions. Identified compounds were retested in triplicates ranging from 180 μM down to 2.4 nM concentrations.

rhodopsin (isorhodopsin) dimerization, sequence (P08100 whole entry, the tested form may be a part): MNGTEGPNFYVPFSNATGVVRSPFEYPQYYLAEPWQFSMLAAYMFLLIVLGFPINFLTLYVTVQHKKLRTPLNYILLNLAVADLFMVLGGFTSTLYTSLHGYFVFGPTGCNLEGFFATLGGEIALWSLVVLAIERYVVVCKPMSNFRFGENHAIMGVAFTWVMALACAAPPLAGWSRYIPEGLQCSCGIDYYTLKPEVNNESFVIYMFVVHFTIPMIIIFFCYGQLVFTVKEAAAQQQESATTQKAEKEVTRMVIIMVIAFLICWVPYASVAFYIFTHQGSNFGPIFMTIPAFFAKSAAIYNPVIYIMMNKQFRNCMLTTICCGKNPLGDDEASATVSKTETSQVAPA

With `O=C(CSc1nnc(NC(=O)Cc2ccc(F)cc2)s1)NO` [#1], in series [1], the “effect on kinetics of rod light responses” value is recorded as “did not substantially affect the kinetics of responses”. In addition, the Rmax in series [1] (5 h incubation, N = 4 retinas) is recorded as 320 ± 80 ^a μV. In addition, the “half-saturating I1/2 from best-fitting Michaelis–Menten equation to mean normalized amplitudes” value in series [1] (Fig. 5F) turned out to be 37 photons μm^−2. In series [1] (N = 4), the “SF (fractional sensitivity, sF/rmax)” value is on record as 5.0 ± 0.3 ^a %/photons∙μm^−2 and the “sF (absolute sensitivity)” value is 13 ± 5 ^a μV/photons∙μm^−2. Further, in series [1] (from individual retinas, N = 4), the I1/2 was 37 ± 2 ^a photons∙μm^−2. The same molecule gave a tp in series [1] (time-to-peak of dim flash (1 photon μm^−2), N = 4) of 163 ± 12 ms. Moreover, the EC50 in series [2] turned out to be 2300 nM.

The EC50 is the concentration that produces a half-maximal response.
